From article PMC10385865, “Synthesis and Anticancer Activity of Novel Dual Inhibitors of Human Protein Kinases CK2 and PIM-1” (Pharmaceutics, 2023)
Like-named read-outs stand apart in the source and are kept apart here.

How the values were obtained:
[1] = tested on: CCRF-CEM cells; assay: Cell cycle progression by flow cytometry (PI), CCRF-CEM; assay type: cell-based, human; details: 48 h
Experimental: (§1) MCF-7, CCRF-CEM, and K-562 cells were cultured in 6-well plates and treated with the tested compounds for 48 h. After exposure to the compounds, the cells were collected and washed with cold PBS and fixed at −20 °C in 70% ethanol for at least 24 h. Subsequently, cells were washed in PBS and stained with 50 μg/mL PI (propidium iodide) and 100 μg/mL RNase solution in PBS supplemented with 0.1% v/v Triton X-100 for 30 min in the dark at RT. Cellular DNA content was determined by flow cytometry employing a BD FACSCanto II flow cytometer (BD Biosciences, San Jose, CA, USA). The obtained DNA histograms were analyzed using MacCycle software (Phoenix Flow Systems, San Diego, CA, USA) for evaluation of the distribution of the cells in different phases of the cell cycle.
(§2) Since CK2 controls cell cycle progression and, consequently, its inhibition can affect the distribution of cells in the individual phases of the cell cycle, we tested the cell cycle progression in CCRF-CEM, K-562, and MCF-7 cells after treatment with 4 and rac-6. Representative plots DNA histograms with the calculations of cell percentages in each phase of the cell cycle are depicted in Figure 7. […] Accumulation of cells in sub-G1 indicates DNA degradation, as often seen in apoptotic cells, confirming the results obtained with annexin V and PI staining.

[2] = tested on: CCRF-CEM cells; assay: Annexin V/propidium iodide apoptosis, flow cytometry, CCRF-CEM; details: 48 h; for Early apoptosis / Late apoptosis / Necrosis: mean±SD; for viability at 5 µM / viability at 10 µM: Homo sapiens, read-out: Viable
Experimental: (§5) MCF-7 cells were seeded in 6-well plates at 1.2 × 10^5 cells/well, whereas CCRF-CEM and K-562 cells were seeded in 24-well plates at a density of 2 × 10^5/mL. Cells were treated with the tested compounds used in 5 µM and 10 µM concentrations. Then, the plates were incubated for 48 h. After exposure to the examined compounds, the cells were collected and centrifugated at 200× g at 4 °C for 5 min, washed twice in cold phosphate-buffered saline (PBS), and subsequently suspended in binding buffer at 1 × 10^6 cells/mL. Subsequently, 100-μL aliquots of the cell suspension were labeled according to the instructions of the respective manufacturer’s kit. Briefly, annexin V-fluorescein isothiocyanate and propidium iodide (BD Biosciences, Pharmingen, San Diego, CA, USA) were added to the cell suspension, and the mixture was vortexed, then incubated for 15 min at RT in the dark. A cold binding buffer (400 μL) was then added, and the cells were vortexed again and kept on ice. Flow cytometric measurements were performed within 1 h after labeling. Viable, necrotic, early, and late apoptotic cells were detected by flow cytometry using a BD FACSCanto II flow cytometer and analyzed using BD FACSDiva operating software (BD Biosciences, San Jose, CA, USA).

[3] = tested on: K-562 cells; assay: Annexin V/propidium iodide apoptosis, flow cytometry, K-562; details: for viability at 5 µM / viability at 10 µM: Homo sapiens, K562, 48 h, read-out: Viable; for Early apoptosis / Late apoptosis / Necrosis: mean±SD
Experimental: as §5

[4] = tested on: K-562 (chronic myelogenous leukemia); assay: MTT-based viability assay, K-562; assay type: cell-based, human; details: for IC50: Homo sapiens, read-out: IC50 K-562
Experimental: (§3) After incubation with the tested compounds, an MTT test was performed as described previously. Optical densities were measured at 570 nm using a BioTek microplate reader (BioTek Instruments, Inc., Winooski, VT, USA). All measurements were carried out in a minimum of three biological replicates.
(§4) . The IC50 values describing the half-maximal effective concentration of each tested compound were calculated and are summarized in Table 2. […].

[5] = tested on: K-562 cells; assay: Cell cycle progression by flow cytometry (PI), K-562; assay type: cell-based, human; details: for K-562 cells in S phase (maximum): K-562, 15 µM, 48 h; for cell cycle arrest (phase, in words): K-562, 48 h
Experimental: as §1, §2

[6] = tested on: CCRF-CEM (acute lymphoblastic leukemia); assay: MTT-based viability assay, CCRF-CEM; assay type: cell-based, human; details: for IC50: Homo sapiens, CCRF-CEM, 48 h, read-out: IC50 CCRF-CEM
Experimental: as §3, §4

[7] = tested on: MCF-7 cells; assay: Cell cycle progression by flow cytometry (PI), MCF-7; assay type: cell-based, human; details: MCF-7, 48 h
Experimental: as §1, §2

[8] = tested on: MCF-7 cells; assay: Annexin V/propidium iodide apoptosis, flow cytometry, MCF-7; details: for viability at 5 µM / viability at 10 µM: Homo sapiens, MCF7, 48 h, read-out: Viable; for Early apoptosis / Late apoptosis / Necrosis: mean±SD
Experimental: as §5

SMILES	cell cycle arrest (phase, in words) [1]	Early apoptosis ([2]; 5 µM) [%]	Late apoptosis ([2]; 5 µM) [%]	Necrosis ([2]; 5 µM) [%]	Early apoptosis ([2]; 10 µM) [%]	Late apoptosis ([2]; 10 µM) [%]	Necrosis ([2]; 10 µM) [%]	viability at 5 µM [2] [%]	viability at 10 µM [2] [%]	viability at 5 µM [3] [%]	viability at 10 µM [3] [%]	Early apoptosis ([3]; K-562, 5 µM, 48 h) [%]	Late apoptosis ([3]; K-562, 5 µM, 48 h) [%]	Necrosis ([3]; K-562, 5 µM, 48 h) [%]	percentage of total apoptotic K-562 cells ([3]; K-562, 10 µM, 48 h) [%]	Early apoptosis ([3]; K-562, 10 µM, 48 h) [%]	Late apoptosis ([3]; K-562, 10 µM, 48 h) [%]	Necrosis ([3]; K-562, 10 µM, 48 h) [%]	K-562 cells in S phase (maximum) [5] [%]	cell cycle arrest (phase, in words) [5]	other results
CN(C)c1nc2c(Br)c(Br)c(Br)c(Br)c2[nH]1 [Compound 4, 4,5,6,7-Tetrabromo-N,N-dimethyl-1H-benzimidazol-2-amine, reference compound]	S-phase arrest	1.65±0.78	13.55±0.35	1.45±0.07	1.55±0.07	16.75±0.21	1.35±0.49	83.3 ± 0.57	80.35 ± 0.78	92.3 ± 0.99	90.6 ± 4.27	1.95±0.61	4.70±1.21	1.05±0.69	8.7	1.33±0.67	7.43±3.52	0.67±0.31	57.7	S-phase arrest	IC50 ([4]; K562, 48 h): 22.5 ± 6.09 µM; IC50 [6]: 18.9 ± 0.88 µM; cell cycle arrest (phase, in words) [7]: S-phase arrest; viability at 5 µM [8]: 79 ± 2.76%; viability at 10 µM [8]: 70.3 ± 3.36%; Early apoptosis ([8]; MCF-7, 5 µM, 48 h): 0.98±0.62%; Late apoptosis ([8]; MCF-7, 5 µM, 48 h): 8.44±1.47%; Necrosis ([8]; MCF-7, 5 µM, 48 h): 11.62±2.01%; Early apoptosis ([8]; MCF-7, 10 µM, 48 h): 1.80±1.31%; Late apoptosis ([8]; MCF-7, 10 µM, 48 h): 15.94±3.58%; Necrosis ([8]; MCF-7, 10 µM, 48 h): 11.96±2.46%
OC(CNc1nc2c(Br)c(Br)c(Br)c(Br)c2[nH]1)C(F)(F)F (racemic) [rac-6, 1,1,1-Trifluoro-3-[(4,5,6,7-tetrabromo-1H-benzimidazol-2-yl)amino]propan-2-ol]	G1-phase arrest	2.75±0.07	18.85±3.61	2.45±0.07	2.30±0.42	44.05±4.03	5.00±1.41	76 ± 3.75	48.6 ± 2.26	87.97 ± 0.81	82.8 ± 3.68	5.13±0.40	5.97±1.02	0.63±0.06	15.5	4.67±1.21	10.80±4.06	1.70±0.60	56.1	S-phase arrest	leukemia cells accumulated in G1 phase (maximum) ([1]; 10 µM): 49%; cells in early and late apoptosis ([2]; 10 µM): 47%; induction of apoptosis (in words) ([3]; K-562, 5 and 10 µM, 48 h): no significant apoptosis observed; IC50 ([4]; K562, MTT, 48 h): 17.7 ± 3.54 µM; SI (selectivity index) K-562 ([4]; IC50 Vero/IC50 cancer cells): 1.15; IC50 ([6]; MTT): 11.8 ± 0.4 µM; SI (selectivity index) CCRF-CEM ([6]; IC50 Vero/IC50 cancer cells): 1.72; cell cycle arrest (phase, in words) [7]: G1-phase arrest; viability at 5 µM [8]: 79 ± 1.94%; viability at 10 µM [8]: 69.1 ± 13.1%; Early apoptosis ([8]; MCF-7, 5 µM, 48 h): 1.18±1.08%; Late apoptosis ([8]; MCF-7, 5 µM, 48 h): 10.96±1.63%; Necrosis ([8]; MCF-7, 5 µM, 48 h): 8.94±1.14%; Early apoptosis ([8]; MCF-7, 10 µM, 48 h): 3.53±5.45%; Late apoptosis ([8]; MCF-7, 10 µM, 48 h): 19.05±7.40%; Necrosis ([8]; MCF-7, 10 µM, 48 h): 8.28±1.69%; induction of apoptosis (in words) ([8]; MCF-7, 10 µM, 48 h, statistically significant result): induced apoptosis
